Data on three compounds can be found in patent US20240382474A1, “ENPP1 MODULATORS AND USES THEREOF” (Vir Biotechnology, Inc., priority 2021, published 2024).

In test [1] the test system is MC38 tumor xenografts. The experiment in a line: Treatment of mice bearing MC38 tumor xenografts (Study 3). The class given is in vivo, C57BL/6 mice. Conditions: for survival: day to which some mice survived (Kaplan-Meier, FIG. 5B): all untreated mice deceased by day 21. As to the method: In this study, 6-8 week old female C57BL/6 mice were implanted subcutaneously in the flank with 5×10^5 MC38 cells. Tumors were measured every 2-3 days using a caliper. Body weight was measured every 2-3 days. Dosing initiated when the average tumor volume reached 50 mm^3 with 7 animals assigned to each treatment group. Animals were dosed orally once daily through Day 27 or until tumors reached 2 cm in size.
FIGS. 5A-5B provide data for a fourth set of mice bearing MC38 tumor xenografts. FIG. 5A provides a graph of median tumor volumes for this set of mice. Mice were divided into three groups: (1) control group, who received no treatment (circles); (2) mice who received Compound 26 dosed at 4 mg/kg PO QD (squares); and (3) mice who received Compound 56 dosed at 12 mg/kg PO QD (triangles). […] For example, at day 20, tumor volumes for the untreated mice were between 2000 and 3000 mm^3, while for treated mice had tumor volumes between 1000 and 2000 mm^3.

Another test concerns MC38 tumors. The experiment in a line: Intratumoral cytokine levels at day 10 in MC38 tumors (Study 2; Luminex cytokine and chemokine panel, IFN-β ELISA). The class given is in vivo, C57BL/6 mice. The settings on record: 12 mg/kg QD. As to the method: (§1) In this study, 6-8 week old female C57BL/6 mice were implanted subcutaneously in the flank with 5×10^5 MC38 cells. Tumors were measured every 2-3 days using a caliper. Body weight was measured every 2-3 days. Dosing initiated on Day (when the average tumor volume reached 50 mm^3 with 15 animals assigned to each treatment group. Animals were dosed orally by gavage with Compound 26 (4 mg/kg PO QD) or Compound 56 (either 1 mg/kg PO QD or 12 mg/kg PO QD).
(§2) A subset of 5 animals from each group were collected on day 10 after the initiation of dosing. Tumors were harvested and lysed via sonication. Supernatants were collected, adjusted for total protein, and assayed using a Luminex cytokine and chemokine panel (Invitrogen) and an IFN-β ELISA. The remaining 10 animals in each group were dosed and monitored through Day 27 or until tumors reached 2 cm in size.
Intratumoral concentrations for each of these inflammatory cytokines are provided in picogram of cytokine per gram of tumor tissue. FIGS. 4B-F each provide data for each of the following: (1) untreated control group (circles); (2) mice treated with 4 mg/kg QD Compound 26 (triangles); (3) mice treated with 12 mg/kg QD […]; and (4) mice treated with […].
On the technique in general: An ELISA detects its analyte on a solid surface through an enzyme-linked reagent.

In test [2] the target is T1, human ENPP1 enzymatic domain (Homo sapiens, UniProt P22413).
T1 construct: recombinant protein containing the human ENPP1 enzymatic domain; purchased Viva Biotech
T1 sequence (P22413 191-591 limits assumed): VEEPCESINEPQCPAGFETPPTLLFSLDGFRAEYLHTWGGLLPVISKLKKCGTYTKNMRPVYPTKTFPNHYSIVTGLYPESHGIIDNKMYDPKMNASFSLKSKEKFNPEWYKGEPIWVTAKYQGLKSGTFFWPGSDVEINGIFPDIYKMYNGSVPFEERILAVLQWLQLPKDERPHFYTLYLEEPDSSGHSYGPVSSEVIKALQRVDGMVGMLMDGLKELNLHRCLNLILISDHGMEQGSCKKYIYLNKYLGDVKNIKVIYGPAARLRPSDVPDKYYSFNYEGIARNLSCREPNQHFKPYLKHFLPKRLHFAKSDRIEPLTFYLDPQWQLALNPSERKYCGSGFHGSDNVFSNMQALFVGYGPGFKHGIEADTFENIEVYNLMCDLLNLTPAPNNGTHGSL
The experiment in a line: ENPP1 Enzymatic Inhibition Assay (2′3′-cGAMP substrate, AMP-Glo luminescence). It counts as biochemical. The settings on record: 1 nM ENPP1, 20 uM 2′3′-cGAMP, 30 minutes at 37° C. The method, boiled down: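 Recombinant human ENPP1 enzymatic domain (1 nM) pre-incubated with inhibitor 15 min at 37° C in Tris pH 8.0, NaCl, CaCl2, ZnCl2, 1% DMSO, then reacted 30 min with 20 uM 2′3′-cGAMP. AMP measured by AMP-Glo luminescence; IC50 from sigmoidal fit over 10 uM to 0.056 nM, normalised to no-inhibitor and no-enzyme controls.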

In test [3] the test system is MC38 tumor xenografts. The experiment in a line: Treatment of mice bearing MC38 tumor xenografts (Study 2): tumor volume, survival, body weight. It counts as in vivo, C57BL/6 mice. As to the method: as §1, §2
FIG. 2A provides a graph of mean tumor volumes for this set of mice bearing MC38 tumor xenografts. Mice were divided into four groups: (1) control group, who received no treatment (black circles, solid line); (2) mice who received Compound 26 dosed at 4 mg/kg PO QD (grey squares, dashed line); (3) mice who received Compound 56 dosed at 12 mg/kg PO QD (grey triangles, dotted line); and (4) mice who received Compound 56 dosed at 1 mg/kg PO QD (empty circles, dotted dashed line).

For test [4], the system named is MC38 tumor xenografts. Put plainly: Treatment of mice bearing MC38 tumor xenografts (Study 1). It counts as in vivo, C57BL/6 mice. The procedure: Ten week old female C57BL/6 mice were implanted subcutaneously in the flank with 5×10^5 MC38 cells. Tumors were measured every 2-3 days using a caliper. Body weight was measured every 2-3 days. Dosing initiated on Day (when the average tumor volume reached 50 mm^3. Five animals were assigned to each treatment group. Animals were dosed orally by gavage with Compound 26 for 10 days and were monitored through Day 32 or until tumors reached 2.000 mm^3 in volume.
FIG. 1 provides a graph of mean tumor volumes for this set of mice bearing MC38 tumor xenografts. Mice were divided into three groups: (1) control group, who received no treatment (black circles, solid line); (2) mice who received Compound 26 dosed at 4 mg/kg PO QD (grey triangles, dashed lines); and (3) mice who received Compound 26 dosed at 60 mg/kg PO QD (grey squares, dotted line). In each treatment group, compound 26 was administered once a day for 10 consecutive days, at which time, treatment was ceased.

“Also recorded” adds a separate entry of the source.

As usually defined, the IC50 is the concentration needed to halve the response being measured. High values mean a need for much substance, low ones inhibition by little substance. Consider `COc1ccc2c(Nc3ccc([S@@](=N)(=O)NC[C@@H](C)O)cc3)ccnc2c1` [Compound 56, (S)-N-((R)-2-hydroxypropyl)-4-((7-methoxyquinolin-4-yl)amino)benzenesulfonimidamide], for which, in the test with MC38 tumor xenografts [1] (12 mg/kg PO QD), the “median tumor volumes compared to the untreated group (FIG. 5A)” value is reported as “significantly lower” and the “survival: day to which some mice survived (Kaplan-Meier, FIG. 5B)” value was not below 27 days. Besides, in the test on MC38 tumors, the “median intratumoral concentration of eotaxin (FIG. 4F)” value is given as ~15000 pg eotaxin/g of tumor, the “median intratumoral concentration of interferon beta (IFN beta) (FIG. 4B)” value is listed as > 400 pg IFNbeta/g of tumor, the “median intratumoral concentration of interferon γ-induced protein 10 kDa (IP-10) (FIG. 4C)” value is listed as 3000-4000 pg IP-10/g of tumor and the “median intratumoral concentration of macrophage inflammatory protein-1-beta (MIP-1beta) (FIG. 4D)” value is recorded as ~9000 pg MIP-1 beta/g of tumor. Also, the “median intratumoral concentration of monocyte-chemotactic protein 3 (MCP-3) (FIG. 4E)” value with MC38 tumors was 20000-30000 pg MCP-3/g of tumor. Besides, the IC50 in test [2] is less than 10 nM. Also, the “mean tumor volume compared to the untreated group (FIG. 2A)” value in the test with MC38 tumor xenografts [3] (1 mg/kg PO QD) was “smaller”. Moreover, the “survival: day to which at least one mouse survived (Kaplan-Meier, FIG. 3A)” value in the test with MC38 tumor xenografts [3] (1 mg/kg PO QD, all untreated mice deceased by day 22) was more than 27 days. In addition, the “mean tumor volume compared to the untreated group (FIG. 2A)” value in the test on MC38 tumor xenografts [3] (12 mg/kg PO QD) was “smaller; also recorded: greatest reduction in tumor volume”. Moreover, the “survival: day to which at least one mouse survived (Kaplan-Meier, FIG. 3A)” value in the test on MC38 tumor xenografts [3] (12 mg/kg PO QD, all untreated mice deceased by day 22) is more than 27 days.
Consider `COc1ccc2c(Oc3ccc([S@@](=N)(=O)NC[C@@H](C)O)cc3)ccnc2c1` [Compound 26, (S)-N-((R)-2-hydroxypropyl)-4-((7-methoxyquinolin-4-yl)oxy)benzenesulfonimidamide], for which, in the test with MC38 tumor xenografts [1] (4 mg/kg PO QD), the “median tumor volumes compared to the untreated group (FIG. 5A)” value is on record as “significantly lower” and the “survival: day to which some mice survived (Kaplan-Meier, FIG. 5B)” value was determined as 24 days. Further, the “mean tumor volume compared to the control group (FIG. 1)” value in the test on MC38 tumor xenografts [4] (4 mg/kg PO QD for 10 days) is on record as “lower”. Also, the “mean tumor volume compared to the control group (FIG. 1)” value in the test on MC38 tumor xenografts [4] (60 mg/kg PO QD for 10 days) is reported as “lower”. In test [2], the 50% inhibitory concentration (IC50) was less than 10 nM. The “mean tumor volume compared to the untreated group (FIG. 2A)” value in the test with MC38 tumor xenografts [3] (4 mg/kg PO QD) was “smaller”. The “survival: day to which some mice survived (Kaplan-Meier, FIG. 3A)” value with MC38 tumor xenografts [3] (4 mg/kg PO QD, all untreated mice deceased by day 22) came out at 24 days.
Consider `COc1ccc2c(Oc3ccc([S@@](=N)(=O)NC[C@H](C)O)cc3)ccnc2c1` [Compound 8, (S)-N-((S)-2-hydroxypropyl)-4-((7-methoxyquinolin-4-yl)oxy)benzenesulfonimidamide], for which the half-maximal inhibitory concentration (IC50) in test [2] was less than 10 nM.
